From patent US20210379049A1, “PPAR-gamma AGONIST FOR TREATMENT OF BLOOD CANCERS” (Coherus Biosciences, Inc, priority 2016, published 2021)

Columns and labels:
adiponectin [1] = experiment: 24-week randomized, double-blind, placebo-controlled study: serum adiponectin levels in subjects with type 2 diabetes; format: in vivo, human; details: for Mean Adiponectin Week 24 / Mean Adiponectin Week 0: type 2 diabetes subjects; for Mean Adiponectin Week 0: baseline (Week 0)
Experimental: A randomized, double-blind, placebo-controlled, 24-week study was conducted in which adiponectin levels were measured. […] 367 subjects with type 2 diabetes (TD2)—a disease in which patient adiponectin levels are reduced-were randomly assigned to receive either 0.5, 1, 2 or 3 milligrams (“mg”) of INT131 besylate, 45 mg of pioglitazone or placebo daily for 24 weeks. To measure adiponectin levels blood was drawn at Weeks 0, 2, 6, 12 and 24.
At baseline (Week 0) mean adiponectin levels were 1.94 micrograms per milliliter (“μg/mL”). The mean adiponectin levels at baseline and Week 24, and the mean change in adiponectin levels from baseline (Week 0) to Week 24 are disclosed in Table 1, below. The standard deviation for samples tested in each group is listed in (parenthesis). Mean baseline adiponectin values were similar for the treatment groups.

adiponectin [2] = experiment: 14-day study: serum adiponectin levels in healthy subjects; format: in vivo, human; details: 0.1 mg INT131 daily for 14 days
Experimental: A study was conducted to determine the effect of INT131 on serum adiponectin levels. Thirty healthy subjects were randomly selected to receive either placebo, 0.1 mg INT131, 1 mg INT131 or 4 mg INT131 daily for 14 days. To measure adiponectin levels blood was drawn at Days 1, 4, 8 and 14.

[3] = subjects taking INT131 vs those taking pioglitazone; DePaoli et al. 2014; cited from earlier work

| Compound | treatment comparison of adiponectin levels with pioglitazone 45 mg (adiponectin [1]; 0.5 mg, 1 mg and 3 mg doses of INT131 vs pioglitazone 45 mg, p≤0.0408) | treatment comparison of adiponectin levels with placebo (adiponectin [1]; 1 mg, 2 mg and 3 mg doses of INT131 vs placebo, p≤0.0109) | Mean Adiponectin Week 24 (adiponectin [1]; Week 24, 0.5 mg INT131 daily) [µg/mL] | Mean Adiponectin Week 24 (adiponectin [1]; Week 24, 1 mg INT131 daily) [µg/mL] | Mean Adiponectin Week 24 (adiponectin [1]; Week 24, 2 mg INT131 daily) [µg/mL] | Mean Adiponectin Week 24 (adiponectin [1]; Week 24, 3 mg INT131 daily) [µg/mL] | Mean Adiponectin Week 0 (adiponectin [1]; 0.5 mg INT131 daily group) [µg/mL] | Mean Adiponectin Week 0 (adiponectin [1]; 1 mg INT131 daily group) [µg/mL] | Mean Adiponectin Week 0 (adiponectin [1]; 2 mg INT131 daily group) [µg/mL] | Mean Adiponectin Week 0 (adiponectin [1]; 3 mg INT131 daily group) [µg/mL] | change in serum adiponectin levels from Day 1 to Day 14 and over placebo (adiponectin [2]) | edema, weight gain and hemodilution versus pioglitazone [3] | Mean Adiponectin Week 24 (adiponectin [1]; Week 24, 45 mg pioglitazone daily) [µg/mL] | Mean Adiponectin Week 0 (adiponectin [1]; 45 mg pioglitazone daily group) [µg/mL] |
| --- | --- | --- | --- | --- | --- | --- | --- | --- | --- | --- | --- | --- | --- | --- |
| O=S(=O)(Nc1cc(Cl)c(Oc2cnc3ccccc3c2)c(Cl)c1)c1ccc(Cl)cc1Cl [INT131] | statistically significant | statistically significant | 2.28 | 3.15 | 5.14 | 5.83 | 1.73 | 1.87 | 1.87 | 2.00 | no significant change | less edema, weight gain, and hemodilution |  |  |
| CCc1ccc(CCOc2ccc(CC3SC(=O)NC3=O)cc2)nc1 (centres unmarked) [Pioglitazone, pioglitazone, reference compound] |  |  |  |  |  |  |  |  |  |  |  |  | 5.28 | 2.32 |
